Earlier results in US12161674B2, “CRISPR-CAS9 modified CD34+ human hematopoietic stem and progenitor cells and uses thereof” (Vertex Pharmaceuticals Incorporated, priority 2018, dated 2024).

Tested on: CD34^+ cells
Details: plerixafor alone

## c1cc(CN2CCCNCCNCCCNCC2)ccc1CN1CCCNCCNCCCNCC1 [plerixafor]
Despite RBC transfusions in the preceding 2 months
  subjects with non-severe pain crisis: 3 of 7
Subjects with severe SCD, range 5.1 to 20.0
  median collection of CD34^+ cells after a single apheresis: 10.4×10^6 CD34^+ cells/kg
